Experimental data from patent US20240018230A1, “METHODS FOR TREATING OR MODULATING AN INFLAMMATORY RESPONSE” (St. Jude Children's Research Hospital, Inc., priority 2020, published 2024).

Experiments:
[1] = tested on: colon cancer and melanoma cell lines; experiment: NO inhibition of TNF-α plus IFN-γ-induced cancer cell death; type: cell-based, human; conditions: 1 mM L-NAME or 100 μM 1400W
Method: Cell Culture and Stimulation Methods. […] Cancer cells were seeded a day before stimulation. On the day of stimulation, the cells were washed once with warm and sterile DPBS, followed by treatment with different cytokines for 48 hours. The concentration of the cytokines used were 25 ng/mL of IL-6 (Peprotech), IL-8 (Peprotech), IL-18 (R&D), IL-15 (Peprotech), IL-1α (Peprotech), IL-1β (Peprotech), IL-2 (Peprotech), TNF-α (Peprotech), and IFN-γ (Peprotech). For the inhibition of nitric oxide (NO), cancer cells were co-treated with 1 mM of L-NAME hydrochloride (TOCRIS) or 100 μM of […] dihydrochloride (Enzo Life Sciences) along with the cytokines. For inhibition of the JAK signaling pathway, the cancer cells were co-treated with 5 μM of baricitinib (Achemblock) all through the experiment. Cell Death Analysis. The kinetics of cell death were measured using a two-color INCUCYTE® S3 imaging system (Essen Biosciences). […] A series of images were acquired at 1-hour time intervals for up to 48 hours post-treatment with a 20× objective and analyzed using the INCUCYTE® S3 software, which allows precise analysis of the number of dye-positive dead cells present in each image. […]

[2] = tested on: bone marrow-derived macrophages (BMDMs); experiment: Real-time imaging of cell death (propidium iodide, INCUCYTE) in BMDMs; type: cell-based, mouse; conditions: for inhibition of cell death in response to TNF-α and IFN-γ treatment: wild-type BMDMs co-treated with 1 mM L-NAME or 100 μM 1400W; for induction of cell death in BMDMs: standard cytokine concentrations (25 ng/mL TNF-α, 50 ng/mL IFN-γ)
BMDMs = experiment: Immunoblot analysis of cell death effectors in BMDMs; type: cell-based, mouse; conditions: for cleavage of caspase-3, -7 and -8: single cytokines compared with the combination
[3] = tested on: HCT-116 colon cancer cells; experiment: Western blot of PANoptosis markers in HCT-116; type: cell-based, human
Method: Western Blot Analysis. For the western blot analyses of caspases, cancer cells were seeded a day before stimulation at a density of 0.5×10^6 cells/well in 6-well cell culture plates. The proteins from the indicated cell types were collected by combining cell lysates with culture supernatants with caspase lysis buffer (with 1× protease inhibitors, 1× phosphatase inhibitors, 10% NP-40, and 25 mM DTT) and 4× sample loading buffer (containing SDS and 2-mercaptoethanol). For the western blot analysis of all other signaling proteins, the cells were lysed in RIPA buffer, supplemented with protease inhibitor and phosphoStop as per the manufacturer's instructions and sample loading buffer. […]

[4] = In vivo TNF-α and IFN-γ-induced inflammatory shock (mortality, serum chemistry, blood counts, flow cytometry, histopathology); design: species or system mice; conditions: i.p. 10 μg TNF-α, 20 μg IFN-γ, or both
Method: In vivo TNF-α and IFN-γ-Induced Inflammatory Shock. Six- to eight-week-old mice of the indicated genotypes were injected intraperitoneally with 10 μg TNF-α alone, 20 μg IFN-γ alone, or TNF-α+IFN-γ diluted in endotoxin-free PBS. Animals were under permanent observation, and survival was assessed every 30 minutes. Blood was collected 5 hours after cytokine injection. Blood composition was analyzed using an automated hematology analyzer. Serum lactate dehydrogenase (LDH), alanine aminotransferase (ALT), aspartate aminotransferase (AST), blood urea nitrogen (BUN), and ferritin were analyzed by colorimetry using respective kits (LDH, ALT, AST, and BUN, all from HORIBA; and ferritin from Abcam) according to the manufacturer's instructions.
Flow Cytometry Methods. Peripheral blood was mixed with ACK lysis buffer for 3 minutes to lyse the red blood cells (RBCs). The cells were then stained with monoclonal antibodies for the following markers for flow cytometry: CD11b from eBioscience; F4/80, Ly6C, and Ly6G from BioLegend; and CD19, TCRb, and CD45.2 from Tonbo Biosciences. […]
Histopathology Methods. […] The number of cleaved caspase-3- and TUNEL-positive cells in five high power fields (20×) were counted per mouse.

COLO-205 cell tumors = experiment: NSG mouse xenograft tumor model, intratumoral cytokines; type: in vivo, NSG mice; conditions: intra-tumoral administration on day 12, 14 and 16 post-transplantation
Method: NSG Mouse Xenograft Tumor Model. The NSG mice (NOD/SCID-gamma null mouse strain that lacks […]) were used as the model recipients for the subcutaneous transplantation of human COLO-205 cancer cells. Briefly, 8- to 10-week-old NSG mice were shaved on their lower backs and transplanted with 2×10^6 COLO-205 cells in 200 μl of medium prepared by mixing (1:1) RPMI and a solubilized basement membrane preparation sold under the tradename MATRIGEL® (BD Bioscience). The mice were monitored regularly for engraftment and growth of COLO-205 cancer cell tumors. The recipient mice were divided into four groups and treated intratumorally with injection of the indicated cytokines or PBS (groups: (i) PBS, (ii) TNF-α, (iii) IFN-γ, or (iv) TNF-α(and IFN-γ) on day 12, 14 and 16 post-transplantation of the tumor cells. The tumor growth was monitored and measured using digital calipers, and the volume of the tumors were calculated using the formula: volume=(length×width^2)×½.

| Molecule | inhibition of cancer cell death induced by TNF-α plus IFN-γ treatment [1] | inhibition of cell death in response to TNF-α and IFN-γ treatment [2] | cleavage of GSDMD and GSDME (combination: GSDME) (BMDMs) | phosphorylation of MLKL (BMDMs) | cleavage of caspase-3, -7 and -8 (BMDMs) | induction of cell death in BMDMs [2] | activation of biochemical markers of PANoptosis in HCT-116 [3] | mortality in mice [4] | further results |
| --- | --- | --- | --- | --- | --- | --- | --- | --- | --- |
| CC(=N)NCc1cccc(CN)c1 [1400W, N-[[3-(aminomethyl)phenyl]methyl]-ethanimidamide] | failed to inhibit | inhibited cell death | – | – | – | – | – | – | – |
| COC(=O)[C@@H](N)CCCNC(=N)N[N+](=O)[O-] [L-NAME, N5-[imino(nitroamino)methyl]-L-ornithine methyl ester] | failed to inhibit | inhibited cell death | – | – | – | – | – | – | – |
| [NH-]c1c[n+](N2CCOCC2)no1 [SIN-1] | – | – | – | – | – | – | – | – | kinetics of cell death induced by NO donor ([2]; wild-type BMDMs, increasing concentrations of SIN-1): proportional to the NO concentration |
| IFN-γ: recombinant IFN-γ protein (Peprotech) | – | – | did not induce robust cleavage | failed to induce robust MLKL phosphorylation | reduced cleavage | failed to induce cell death | only weak activation | – | – |
| TNF-α | – | – | did not induce robust cleavage | failed to induce robust MLKL phosphorylation | reduced cleavage | failed to induce cell death | only weak activation | did not cause significant mortality | tumor weight (COLO-205 cell tumors): minor but significant reduction |
| IFN-γ: recombinant IFN-γ protein (Peprotech) (protein, UniProt P01579 24-161, looked up) Interferon gamma: QDPYVKEAENLKKYFNAGHSDVADNGTLFLGILKNWKEESDRKIMQSQIVSFYFKLFKNFKDDQSIQKSVETIKEDMNVKFFNSNKKKRDDFEKLTNYSVTDLNVQRKAIHELIQVMAELSPAAKTGKRKRSQMLFRG | – | – | – | – | – | – | – | did not cause significant mortality | – |
